Data reported in patent US7652037B2, “Methods of lowering lipid levels in a mammal” (City Of Hope, priority 2003, dated 2010).

Experiments:
STZ-Diabetic Rats [1] = assay: Body weight and glycemia in STZ-diabetic rats (Examples 10 and 14); type: in vivo, rat; conditions: for Body Weight / HbA1c / Plasma Glucose: 50 mg/L in drinking water, 32 weeks; for effect on hyperglycemia and body weight gains: either ND or D rats
Experimental: Diabetes was induced in male Sprague-Dawley rats by a single i.p. injection of STZ (65 mg/kg in citrate buffer, pH 4.5) after an overnight fast. Non-diabetic animals were injected with citrate buffer only. One week after STZ injection, only animals with >20 mmol/L plasma glucose were classified as diabetic and included in the study. Diabetic rats were divided randomly into the following treatment groups: diabetic untreated (D); and two diabetic treatment groups, receiving either LR-9 (D+LR-9) or LR-74 (D+LR-74) at 50 mg/L in drinking water. Three non-diabetic groups were studied concurrently: one untreated non-diabetic group (ND), and two non-diabetic groups treated with either LR-9 (ND+LR-9) or LR-74 (ND+LR-74) at 50 mg/L in drinking water.
(§1) Both plasma glucose and body weight were checked before administration of the drug, and no differences were detected among the three diabetic treatment groups or among the three non-diabetic groups. All animals were housed individually and were given free access to food and water. Glycemic control and body weights were monitored periodically. To limit hyperglycemia and ensure that animals maintained body weight, diabetic animals received 3 IU of ultralente insulin two to three times per week. The study was carried out over 32 weeks. Progression of renal dysfunction was assessed by measuring urinary albumin and plasma creatinine concentrations according to known methods. Figarola et al., Diabetologia 46:1140-115, 2003.
as §1, with “Rats were treated and divided into treatment groups as described in Example 10. Both” for “Both”, “weeks.” for “weeks. Progression of renal dysfunction was assessed by measuring urinary albumin and plasma creatinine concentrations according to known methods. Figarola et al., Diabetologia 46:1140-115, 2003.”

STZ-Diabetic Rats [2] = assay: AGEs/ALEs (CML, CEL) in skin collagen by LC-ESI/MS/MS (Example 12); type: in vivo, rat
Experimental: Tail tendon collagen was isolated from each rat in Example 11 and the degree of AGE formation in collagen was assessed by measurement of fluorescent AGE after enzymatic digestion. Figarola et al., Diabetologia 46:1140-115, 2003. Skin collagen isolation and reduction was performed as described in Shaw et al., Methods Mol. Biol. 186:129-137, 2002. Levels of AGEs/ALEs were normalized to the lysine content of the collagen samples.
Ion-pair reversed-phase liquid chromatography/tandem mass spectroscopy analysis was performed using an Agilent Technologies™ LC1100 series system interfaced to a Micromass Quatro™ Ultima Triple Quadripole Mass Spectrometer. HPLC separation was achieved using a Phenomenex Synergi™ Hydro-RP […] 80A 150×2.0 mm column preceded by a Phenomenex C18 guard column. The column temperature was maintained at 25° C. and the flow was 0.2 mL/minute. The isocratic mobile phase consisted of 10% acetonitrile and 0.1% heptafluorobutyric acid in water. Total run time was 12 minutes; injection volume was 20 μL. The autoinjector temperature was 5° C. The electrospray ionization source of the mass spectrophotometer was operated in the positive ion mode with a cone gas flow of 190 L/hour and desolvation gas flow of 550 L/hour. The capillary voltage was set to 2.7 kV. Cone and collision cell voltages were optimized to 25 V and 13 eV for CML, 33 V and 12 eV d4CML, 24 V and 14 eV for CEL, […] and 14 eV for D8CEL, and […] and 16 eV for lysine, respectively. […] The desolvation temperature was increased to 300° C., and the solvent delay program was used from 0 to 3 minutes and 10 to 12 minutes. The fragmentation of these compounds can be induced under collision dissociation conditions and acidic mobile phase. The precursor→product ion combinations at m/z were 205.1→130.11 for CML, 209.12→134.12 for d4CML, 219.11→130.11 for CEL, 227.18→138.16 for d8CEL, 147.15→84.21 for lysine and 151.27→88.33 for DL-d4Lysine were used in multiple reaction monitoring (MRM) mode to determine these compounds. MassLynx™ version 3.5 software was used for data acquisition and processing.
All solutions of standards and internal standards were prepared in water. Standard solution containing both CML and CEL were prepared at six concentrations: 4, 10, 20, 40, 100 and 200 pmol/mL for CML and 2, 5, 10, 20, 50 and 100 pmol/mL for CEL. Quality control solutions were prepared at two concentrations: 7.5 and 150 pmol/mL for CML and 3.75 and 75 pmol/mL for CEL. A stock solution of heavy-labeled internal standards (d4CML and d8CEL) was prepared at 800 pmol/mL. For generation of a standard curve, 130 μL of standard solution was freshly mixed with 10 μL 0.1 M ammonium bicarbonate, 10 μL 0.05% HFBA and 10 μL internal standard stock solution to give a caliber. […]

[3] = Carbonyl trapping activity; conditions: compared with AG, PM and LR-90

| Compound | Body Weight (STZ-Diabetic Rats [1]; diabetic (D) rats) [g] | HbA1c (STZ-Diabetic Rats [1]; diabetic (D) rats) [%] | Plasma Glucose (STZ-Diabetic Rats [1]; diabetic (D) rats) [mmol/L] | effect on hyperglycemia and body weight gains (STZ-Diabetic Rats [1]) | Body Weight (STZ-Diabetic Rats [1]; non-diabetic (ND) rats) [g] | HbA1c (STZ-Diabetic Rats [1]; non-diabetic (ND) rats) [%] | Plasma Glucose (STZ-Diabetic Rats [1]; non-diabetic (ND) rats) [mmol/L] | CEL concentration in skin collagen (STZ-Diabetic Rats [2]) | CML concentration in skin collagen (STZ-Diabetic Rats [2]) | carbonyl trapping activities [3] |
| --- | --- | --- | --- | --- | --- | --- | --- | --- | --- | --- |
| CC(C)(Oc1ccc(NC(=O)c2ccc3ccccc3c2)cc1)C(=O)O [LR-9, 4-(2-napthylcarboxamido) phenoxyisobutyric acid] | 288.0 ± 29.3 | 2.0 ± 0.1 | 27.1 ± 0.5 | no effect | 681.0 ± 4.6 | 0.9 ± 0.1 | 8.2 ± 0.5 | significantly limited the increase | significantly limited the increase | weaker |
| CC(Oc1cccc2cccnc12)C(=O)O (centres unmarked) [LR-74, 2-(8-quinolinoxy) propionic acid] | 314.7 ± 21.6 | 2.1 ± 0.1 | 26.9 ± 0.6 | no effect | 744.0 ± 25.8 | 0.9 ± 0.1 | 6.8 ± 0.4 | significantly limited the increase | significantly limited the increase | weaker |
